{"source": "ChEMBL document CHEMBL5257059", "about": "“Pyridine-Based 1,2,4-Triazolo-Tethered Indole Conjugates Potentially Affecting TNKS and PI3K in Colorectal Cancer” (ACS Med Chem Lett, 2023)", "assay_type_in_all_cases": "functional, cell-based", "key": {"Caco-2": {"tested_on": "Caco-2", "test": "Antiproliferative activity against human Caco-2 cells assessed as inhibition of cell growth incubated for 24 hrs by MTT assay", "conditions": "Caco-2, 24 h"}, "HT-29": {"tested_on": "HT-29", "test": "Antiproliferative activity against human HT-29 cells assessed as inhibition of cell growth incubated for 24 hrs by MTT assay", "conditions": "HT-29, 24 h"}, "DLD-1": {"tested_on": "DLD-1", "test": "Antiproliferative activity against human DLD-1 cells assessed as inhibition of cell growth incubated for 24 hrs by MTT assay", "conditions": "DLD-1, 24 h"}, "[1]": {"test": "Antiproliferative activity against human Tera-1 cells assessed as inhibition of cell growth incubated for 24 hrs by MTT assay", "conditions": "Tera-1, 24 h"}, "A 172": {"tested_on": "A 172", "test": "Antiproliferative activity against human A-172 cells assessed as inhibition of cell growth incubated for 24 hrs by MTT assay", "conditions": "A 172, 24 h"}, "A549": {"tested_on": "A549", "test": "Antiproliferative activity against human A549 cells assessed as inhibition of cell growth incubated for 24 hrs by MTT assay", "conditions": "A549, 24 h"}}}
{"smiles": "Cc1ccccc1-n1c(SCCc2c[nH]c3ccccc23)nnc1-c1ccncc1", "values": [{"measurement": "IC50", "setting": "Caco-2", "value": "> 30", "unit": "µM"}, {"measurement": "IC50", "setting": "HT-29", "value": "> 30", "unit": "µM"}, {"measurement": "IC50", "setting": "DLD-1", "value": "> 30", "unit": "µM"}, {"measurement": "IC50", "setting": "[1]", "value": "> 30", "unit": "µM"}, {"measurement": "IC50", "setting": "A 172", "value": "> 30", "unit": "µM"}, {"measurement": "IC50", "setting": "A549", "value": "> 30", "unit": "µM"}]}
{"smiles": "Clc1ccc(-n2c(SCCc3c[nH]c4ccccc34)nnc2-c2ccncc2)cc1", "values": [{"measurement": "IC50", "setting": "Caco-2", "value": 25, "unit": "µM"}, {"measurement": "IC50", "setting": "HT-29", "value": "> 30", "unit": "µM"}, {"measurement": "IC50", "setting": "DLD-1", "value": 21.8, "unit": "µM"}, {"measurement": "IC50", "setting": "[1]", "value": "> 30", "unit": "µM"}, {"measurement": "IC50", "setting": "A 172", "value": 23.3, "unit": "µM"}, {"measurement": "IC50", "setting": "A549", "value": 18.7, "unit": "µM"}]}
{"smiles": "Brc1cccc(-n2c(SCCc3c[nH]c4ccccc34)nnc2-c2ccncc2)c1", "values": [{"measurement": "IC50", "setting": "Caco-2", "value": 10.5, "unit": "µM"}, {"measurement": "IC50", "setting": "HT-29", "value": 12.2, "unit": "µM"}, {"measurement": "IC50", "setting": "DLD-1", "value": 15.3, "unit": "µM"}, {"measurement": "IC50", "setting": "[1]", "value": 24.6, "unit": "µM"}, {"measurement": "IC50", "setting": "A 172", "value": 14.7, "unit": "µM"}, {"measurement": "IC50", "setting": "A549", "value": 14.5, "unit": "µM"}]}
{"smiles": "Brc1ccccc1-n1c(SCCc2c[nH]c3ccccc23)nnc1-c1ccncc1", "values": [{"measurement": "IC50", "setting": "Caco-2", "value": "> 30", "unit": "µM"}, {"measurement": "IC50", "setting": "HT-29", "value": "> 30", "unit": "µM"}, {"measurement": "IC50", "setting": "DLD-1", "value": "> 30", "unit": "µM"}, {"measurement": "IC50", "setting": "[1]", "value": "> 30", "unit": "µM"}, {"measurement": "IC50", "setting": "A 172", "value": "> 30", "unit": "µM"}, {"measurement": "IC50", "setting": "A549", "value": 4, "unit": "µM"}]}
{"smiles": "O=c1[nH]cc(F)c(=O)[nH]1", "note": "[FLUOROURACIL]", "values": [{"measurement": "IC50", "setting": "HT-29", "value": 5.31, "unit": "µM"}]}
{"smiles": "c1ccc(-n2c(SCCc3c[nH]c4ccccc34)nnc2-c2ccncc2)cc1", "values": [{"measurement": "IC50", "setting": "Caco-2", "value": "> 30", "unit": "µM"}, {"measurement": "IC50", "setting": "HT-29", "value": "> 30", "unit": "µM"}, {"measurement": "IC50", "setting": "DLD-1", "value": 19, "unit": "µM"}, {"measurement": "IC50", "setting": "[1]", "value": "> 30", "unit": "µM"}, {"measurement": "IC50", "setting": "A 172", "value": 26.8, "unit": "µM"}, {"measurement": "IC50", "setting": "A549", "value": "> 30", "unit": "µM"}]}
{"smiles": "C=CCn1c(SCCc2c[nH]c3ccccc23)nnc1-c1ccncc1", "values": [{"measurement": "IC50", "setting": "Caco-2", "value": "> 30", "unit": "µM"}, {"measurement": "IC50", "setting": "HT-29", "value": "> 30", "unit": "µM"}, {"measurement": "IC50", "setting": "DLD-1", "value": "> 30", "unit": "µM"}, {"measurement": "IC50", "setting": "[1]", "value": "> 30", "unit": "µM"}, {"measurement": "IC50", "setting": "A 172", "value": "> 30", "unit": "µM"}, {"measurement": "IC50", "setting": "A549", "value": "> 30", "unit": "µM"}]}
{"smiles": "Cc1ccc(-n2c(SCCc3c[nH]c4ccccc34)nnc2-c2ccncc2)cc1", "values": [{"measurement": "IC50", "setting": "Caco-2", "value": 17.8, "unit": "µM"}, {"measurement": "IC50", "setting": "HT-29", "value": "> 30", "unit": "µM"}, {"measurement": "IC50", "setting": "DLD-1", "value": 16.5, "unit": "µM"}, {"measurement": "IC50", "setting": "[1]", "value": "> 30", "unit": "µM"}, {"measurement": "IC50", "setting": "A 172", "value": 20.3, "unit": "µM"}, {"measurement": "IC50", "setting": "A549", "value": 13.5, "unit": "µM"}]}
{"smiles": "CCCCn1c(SCCc2c[nH]c3ccccc23)nnc1-c1ccncc1", "values": [{"measurement": "IC50", "setting": "Caco-2", "value": "> 30", "unit": "µM"}, {"measurement": "IC50", "setting": "HT-29", "value": "> 30", "unit": "µM"}, {"measurement": "IC50", "setting": "DLD-1", "value": "> 30", "unit": "µM"}, {"measurement": "IC50", "setting": "[1]", "value": "> 30", "unit": "µM"}, {"measurement": "IC50", "setting": "A 172", "value": "> 30", "unit": "µM"}, {"measurement": "IC50", "setting": "A549", "value": "> 30", "unit": "µM"}]}
{"smiles": "c1ccc(Cn2c(SCCc3c[nH]c4ccccc34)nnc2-c2ccncc2)cc1", "values": [{"measurement": "IC50", "setting": "Caco-2", "value": "> 30", "unit": "µM"}, {"measurement": "IC50", "setting": "HT-29", "value": "> 30", "unit": "µM"}, {"measurement": "IC50", "setting": "DLD-1", "value": 25.8, "unit": "µM"}, {"measurement": "IC50", "setting": "[1]", "value": 10.7, "unit": "µM"}, {"measurement": "IC50", "setting": "A 172", "value": 8.1, "unit": "µM"}, {"measurement": "IC50", "setting": "A549", "value": 13.9, "unit": "µM"}]}
{"smiles": "CCCn1c(SCCc2c[nH]c3ccccc23)nnc1-c1ccncc1", "values": [{"measurement": "IC50", "setting": "Caco-2", "value": "> 30", "unit": "µM"}, {"measurement": "IC50", "setting": "HT-29", "value": "> 30", "unit": "µM"}, {"measurement": "IC50", "setting": "DLD-1", "value": "> 30", "unit": "µM"}, {"measurement": "IC50", "setting": "[1]", "value": "> 30", "unit": "µM"}, {"measurement": "IC50", "setting": "A 172", "value": "> 30", "unit": "µM"}, {"measurement": "IC50", "setting": "A549", "value": "> 30", "unit": "µM"}]}
{"smiles": "O=[N+]([O-])c1ccc(-n2c(SCCc3c[nH]c4ccccc34)nnc2-c2ccncc2)cc1", "values": [{"measurement": "IC50", "setting": "Caco-2", "value": "> 30", "unit": "µM"}, {"measurement": "IC50", "setting": "HT-29", "value": "> 30", "unit": "µM"}, {"measurement": "IC50", "setting": "DLD-1", "value": "> 30", "unit": "µM"}, {"measurement": "IC50", "setting": "[1]", "value": "> 30", "unit": "µM"}, {"measurement": "IC50", "setting": "A 172", "value": 16.9, "unit": "µM"}, {"measurement": "IC50", "setting": "A549", "value": "> 30", "unit": "µM"}]}
{"smiles": "Clc1cccc(-n2c(SCCc3c[nH]c4ccccc34)nnc2-c2ccncc2)c1", "values": [{"measurement": "IC50", "setting": "Caco-2", "value": 13.5, "unit": "µM"}, {"measurement": "IC50", "setting": "HT-29", "value": 7.3, "unit": "µM"}, {"measurement": "IC50", "setting": "DLD-1", "value": 11, "unit": "µM"}, {"measurement": "IC50", "setting": "[1]", "value": "> 30", "unit": "µM"}, {"measurement": "IC50", "setting": "A 172", "value": "> 30", "unit": "µM"}, {"measurement": "IC50", "setting": "A549", "value": "> 30", "unit": "µM"}]}
{"smiles": "Cc1cccc(C)c1-n1c(SCCc2c[nH]c3ccccc23)nnc1-c1ccncc1", "values": [{"measurement": "IC50", "setting": "Caco-2", "value": "> 30", "unit": "µM"}, {"measurement": "IC50", "setting": "HT-29", "value": "> 30", "unit": "µM"}, {"measurement": "IC50", "setting": "DLD-1", "value": "> 30", "unit": "µM"}, {"measurement": "IC50", "setting": "[1]", "value": "> 30", "unit": "µM"}, {"measurement": "IC50", "setting": "A 172", "value": "> 30", "unit": "µM"}, {"measurement": "IC50", "setting": "A549", "value": "> 30", "unit": "µM"}]}
{"smiles": "Fc1ccc(-n2c(SCCc3c[nH]c4ccccc34)nnc2-c2ccncc2)cc1", "values": [{"measurement": "IC50", "setting": "Caco-2", "value": 10.3, "unit": "µM"}, {"measurement": "IC50", "setting": "HT-29", "value": 5.8, "unit": "µM"}, {"measurement": "IC50", "setting": "DLD-1", "value": 10.6, "unit": "µM"}, {"measurement": "IC50", "setting": "[1]", "value": "> 30", "unit": "µM"}, {"measurement": "IC50", "setting": "A 172", "value": "> 30", "unit": "µM"}, {"measurement": "IC50", "setting": "A549", "value": 8.09, "unit": "µM"}]}
